Tests used:
Type in all cases: functional
Blautia producta = assay: Antibacterial activity against Ruminococcus productus by CLSI M11-A6 agar dilution method in presence of beta-lactamase inhibitor Sulbactam
Odoribacter splanchnicus = assay: Antibacterial activity against Bacteroides splanchnicus by CLSI M11-A6 agar dilution method in presence of beta-lactamase inhibitor Sulbactam
Bacteroides fragilis = assay: Antibacterial activity against Bacteroides fragilis by CLSI M11-A6 agar dilution method in presence of beta-lactamase inhibitor Sulbactam
Anaerococcus prevotii = assay: Antibacterial activity against Anaerococcus prevotii by CLSI M11-A6 agar dilution method in presence of beta-lactamase inhibitor Sulbactam
Clostridium subterminale = assay: Antibacterial activity against Clostridium subterminale by CLSI M11-A6 agar dilution method in presence of beta-lactamase inhibitor Sulbactam
[1] = test system: Propionibacterium propionicum; assay: Antibacterial activity against Propionibacterium propionicus by CLSI M11-A6 agar dilution method in presence of beta-lactamase inhibitor Sulbactam; conditions: Arachnia propionica
[2] = test system: Catenibacterium mitsuokai; assay: Antibacterial activity against Catenibacterium mitsuokai by CLSI M11-A6 agar dilution method in presence of beta-lactamase inhibitor Sulbactam
Fusobacterium mortiferum = assay: Antibacterial activity against Fusobacterium mortiferum by CLSI M11-A6 agar dilution method in presence of beta-lactamase inhibitor Sulbactam
Clostridium hathewayi = assay: Antibacterial activity against Clostridium hathewayi by CLSI M11-A6 agar dilution method in presence of beta-lactamase inhibitor Sulbactam; conditions: Hungatella hathewayi
Ruminococcus obeum = assay: Antibacterial activity against Ruminococcus obeum by CLSI M11-A6 agar dilution method in presence of beta-lactamase inhibitor Sulbactam; conditions: Blautia obeum
[3] = test system: Streptococcus intermedius; assay: Antibacterial activity against Streptococcus intermedius by CLSI M11-A6 agar dilution method in presence of beta-lactamase inhibitor Sulbactam
Finegoldia magna = assay: Antibacterial activity against Finegoldia magna by CLSI M11-A6 agar dilution method in presence of beta-lactamase inhibitor Sulbactam
Prevotella oris = assay: Antibacterial activity against Prevotella oris by CLSI M11-A6 agar dilution method in presence of beta-lactamase inhibitor Sulbactam; conditions: Segatella oris
Ruminococcus gnavus = assay: Antibacterial activity against Ruminococcus gnavus by CLSI M11-A6 agar dilution method in presence of beta-lactamase inhibitor Sulbactam; conditions: Mediterraneibacter gnavus
Prevotella disiens = assay: Antibacterial activity against Prevotella disiens by CLSI M11-A6 agar dilution method in presence of beta-lactamase inhibitor Sulbactam
Ruminococcus torques = assay: Antibacterial activity against Ruminococcus torques by CLSI M11-A6 agar dilution method in presence of beta-lactamase inhibitor Sulbactam; conditions: Mediterraneibacter torques
Clostridium glycolicum = assay: Antibacterial activity against Clostridium glycolicum by CLSI M11-A6 agar dilution method in presence of beta-lactamase inhibitor Sulbactam; conditions: Terrisporobacter glycolicus
[4] = test system: Ruminococcus flavefaciens; assay: Antibacterial activity against Ruminococcus flavefaciens by CLSI M11-A6 agar dilution method in presence of beta-lactamase inhibitor Sulbactam
Clostridioides difficile = assay: Antibacterial activity against Clostridium difficile by CLSI M11-A6 agar dilution method in presence of beta-lactamase inhibitor Sulbactam
Clostridium tertium = assay: Antibacterial activity against Clostridium tertium by CLSI M11-A6 agar dilution method in presence of beta-lactamase inhibitor Sulbactam
Clostridium bartlettii = assay: Antibacterial activity against Clostridium bartlettii by CLSI M11-A6 agar dilution method in presence of beta-lactamase inhibitor Sulbactam; conditions: Intestinibacter bartlettii
Prevotella denticola = assay: Antibacterial activity against Prevotella denticola by CLSI M11-A6 agar dilution method in presence of beta-lactamase inhibitor Sulbactam
Clostridium disporicum = assay: Antibacterial activity against Clostridium disporicum by CLSI M11-A6 agar dilution method in presence of beta-lactamase inhibitor Sulbactam
Collinsella aerofaciens = assay: Antibacterial activity against Colinsella aerofaciens by CLSI M11-A6 agar dilution method in presence of beta-lactamase inhibitor Sulbactam
[5] = test system: Parabacteroides distasonis; assay: Antibacterial activity against Parabacteroides distasonis by CLSI M11-A6 agar dilution method in presence of beta-lactamase inhibitor Sulbactam
Holdemania filiformis = assay: Antibacterial activity against Holdemania filiformis by CLSI M11-A6 agar dilution method in presence of beta-lactamase inhibitor Sulbactam
Ruminococcus albus = assay: Antibacterial activity against Ruminococcus albus by CLSI M11-A6 agar dilution method in presence of beta-lactamase inhibitor Sulbactam; conditions: Hominimerdicola alba
Streptococcus anginosus = assay: Antibacterial activity against Streptococcus anginosus by CLSI M11-A6 agar dilution method in presence of beta-lactamase inhibitor Sulbactam
Parabacteroides merdae = assay: Antibacterial activity against Parabacteroides merdae by CLSI M11-A6 agar dilution method in presence of beta-lactamase inhibitor Sulbactam
[6] = test system: Clostridium celerecrescens; assay: Antibacterial activity against Clostridium celerecrescens by CLSI M11-A6 agar dilution method in presence of beta-lactamase inhibitor Sulbactam; conditions: Lacrimispora celerecrescens
Coriobacterium = assay: Antibacterial activity against […] by CLSI M11-A6 agar dilution method in presence of beta-lactamase inhibitor Sulbactam
Parvimonas micra = assay: Antibacterial activity against Peptostreptococcus micros by CLSI M11-A6 agar dilution method in presence of beta-lactamase inhibitor Sulbactam
Bifidobacterium longum = assay: Antibacterial activity against Bifidobacterium longum by CLSI M11-A6 agar dilution method in presence of beta-lactamase inhibitor Sulbactam
[Clostridium] innocuum = Antibacterial activity against Clostridium innocuum by CLSI M11-A6 agar dilution method in presence of beta-lactamase inhibitor Sulbactam
[7] = test system: Bifidobacterium adolescentis; assay: Antibacterial activity against Bifidobacterium adolescentis by CLSI M11-A6 agar dilution method in presence of beta-lactamase inhibitor Sulbactam

SMILES: CC1(C)S[C@@H]2[C@H](NC(=O)[C@H](N)c3ccccc3)C(=O)N2[C@H]1C(=O)O [AMPICILLIN]
- MIC50 (Blautia producta): ≤ 0.12 µg/mL
- MIC90 (Blautia producta): 1 µg/mL
- MIC (Odoribacter splanchnicus): 1 µg/mL
- MIC50 (Odoribacter splanchnicus): 1 µg/mL
- MIC90 (Odoribacter splanchnicus): 4 µg/mL
- MIC50 (Bacteroides fragilis): 1 µg/mL
- MIC90 (Bacteroides fragilis): 8 µg/mL
- MIC50 (Anaerococcus prevotii): 0.25 µg/mL
- MIC90 (Anaerococcus prevotii): 0.5 µg/mL
- MIC50 (Clostridium subterminale): ≤ 0.12 µg/mL
- MIC90 (Clostridium subterminale): 0.25 µg/mL
- MIC50 [1]: 0.25 µg/mL
- MIC90 [1]: 1 µg/mL
- MIC50 [2]: 0.25 µg/mL
- MIC90 [2]: 1 µg/mL
- MIC50 (Fusobacterium mortiferum): 2 µg/mL
- MIC90 (Fusobacterium mortiferum): 16 µg/mL
- MIC50 (Clostridium hathewayi): 2 µg/mL
- MIC90 (Clostridium hathewayi): 2 µg/mL
- MIC50 (Ruminococcus obeum): ≤ 0.12 µg/mL
- MIC90 (Ruminococcus obeum): 0.25 µg/mL
- MIC50 [3]: 0.5 µg/mL
- MIC90 [3]: 0.5 µg/mL
- MIC50 (Finegoldia magna): 0.25 µg/mL
- MIC90 (Finegoldia magna): 0.5 µg/mL
- MIC50 (Prevotella oris): ≤ 0.12 µg/mL
- MIC90 (Prevotella oris): 2 µg/mL
- MIC50 (Ruminococcus gnavus): ≤ 0.12 µg/mL
- MIC90 (Ruminococcus gnavus): 1 µg/mL
- MIC50 (Prevotella disiens): ≤ 0.12 µg/mL
- MIC90 (Prevotella disiens): 2 µg/mL
- MIC50 (Ruminococcus torques): ≤ 0.12 µg/mL
- MIC90 (Ruminococcus torques): 1 µg/mL
- MIC50 (Clostridium glycolicum): 0.25 µg/mL
- MIC90 (Clostridium glycolicum): 1 µg/mL
- MIC50 [4]: ≤ 0.12 µg/mL
- MIC90 [4]: 1 µg/mL
- MIC (Clostridioides difficile): 2 µg/mL
- MIC50 (Clostridioides difficile): 2 µg/mL
- MIC90 (Clostridioides difficile): 4 µg/mL
- MIC50 (Clostridium tertium): 0.25 µg/mL
- MIC90 (Clostridium tertium): 1 µg/mL
- MIC50 (Clostridium bartlettii): 0.25 µg/mL
- MIC90 (Clostridium bartlettii): 1 µg/mL
- MIC50 (Prevotella denticola): ≤ 0.12 µg/mL
- MIC90 (Prevotella denticola): 2 µg/mL
- MIC50 (Clostridium disporicum): 0.25 µg/mL
- MIC90 (Clostridium disporicum): 1 µg/mL
- MIC50 (Collinsella aerofaciens): 0.25 µg/mL
- MIC90 (Collinsella aerofaciens): 1 µg/mL
- MIC50 [5]: 8 µg/mL
- MIC90 [5]: 32 µg/mL
- MIC50 (Holdemania filiformis): 0.25 µg/mL
- MIC90 (Holdemania filiformis): 1 µg/mL
- MIC50 (Ruminococcus albus): ≤ 0.12 µg/mL
- MIC90 (Ruminococcus albus): 1 µg/mL
- MIC50 (Streptococcus anginosus): 0.5 µg/mL
- MIC90 (Streptococcus anginosus): 0.5 µg/mL
- MIC50 (Parabacteroides merdae): 8 µg/mL
- MIC90 (Parabacteroides merdae): 32 µg/mL
- MIC50 [6]: 0.25 µg/mL
- MIC90 [6]: 1 µg/mL
- MIC50 (Coriobacterium): 0.25 µg/mL
- MIC90 (Coriobacterium): 1 µg/mL
- MIC50 (Parvimonas micra): 0.25 µg/mL
- MIC90 (Parvimonas micra): 0.5 µg/mL
- MIC50 (Bifidobacterium longum): 0.25 µg/mL
- MIC90 (Bifidobacterium longum): 1 µg/mL
- MIC50 ([Clostridium] innocuum): 0.5 µg/mL
- MIC90 ([Clostridium] innocuum): 0.5 µg/mL
- MIC50 [7]: 0.25 µg/mL
- MIC90 [7]: 1 µg/mL

Reference: ChEMBL document CHEMBL1671662, “In vitro activities of telavancin and six comparator agents against anaerobic bacterial isolates” (2009)
